Source: the supplement of paper PMC11451515

Key:
NOMO1 [1] = assay: AUC of viability dose-response curve (% viability x log10 dose units); higher = less sensitive; conditions: 48 h
Procedure, shortened: (§1)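 Leukemia cells adapted to each medium (500 or 1000 cells/well, 1536-well plates) were exposed to library compounds in DMSO for 48 h at 37°C at 11 threefold doses, 47 μM to 0.79 nM. Luminescence by CellTiter-Glo One was normalised per plate to DMSO and cell-free wells, then fitted with a four-parameter log-logistic curve on log10 dose. Curves above full viability were scaled and quality-control failures removed before area under the curve was integrated by trapezoidal rule.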

P12-Ichikawa [2] = assay: as above; conditions: 48 h
Procedure, shortened: as §1

SEM cells [3] = assay: as above; conditions: 48 h
Procedure, shortened: as §1

NOMO1 [4] = assay: cell viability relative to DMSO control; higher = less cytotoxic; conditions: 48 h
Procedure, shortened: (§2)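 Viability values are per-plate percentages of DMSO wells, with background from cell-free wells. Library compounds in DMSO were pin-dosed, in an 11-point threefold series from 47 μM to 0.79 nM, onto NOMO1 or SEM (500 cells/well) or P12-Ichikawa (1000 cells/well) leukemia cells in 1536-well plates (5 μl). Those cells had been adapted for at least four passages in each medium, and CellTiter-Glo One luminescence was read after 48 h at 37°C.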

P12-Ichikawa [5] = assay: as above; conditions: HPLM + 10% dialyzed FBS, 48 h
Procedure, shortened: as §2

SEM cells [6] = assay: as above; conditions: 48 h
Procedure, shortened: as §2

Cn1c(Nc2ccc(C(F)(F)F)cc2)nc2cc(Oc3ccnc(-c4nc(C(F)(F)F)c[nH]4)c3)ccc21
Conditions | AUC of viability dose-response curve | cell viability [%]
NOMO1 [1], HPLM + 10% dialyzed FBS | 444 | –
NOMO1 [1], RPMI 5 mM glucose + 10% FBS | 454 | –
NOMO1 [1], RPMI 5 mM glucose + 10% dialyzed FBS | 446 | –
P12-Ichikawa [2], HPLM + 10% dialyzed FBS | 441 | –
P12-Ichikawa [2], RPMI 5 mM glucose + 10% FBS | 425 | –
P12-Ichikawa [2], RPMI 5 mM glucose + 10% dialyzed FBS | 431 | –
P12-Ichikawa [5], 0.000781 µM | – | 120
P12-Ichikawa [5], 0.00234 µM | – | 112
P12-Ichikawa [5], 0.00702 µM | – | 119
P12-Ichikawa [5], 0.0211 µM | – | 93
P12-Ichikawa [5], 0.0632 µM | – | 133
P12-Ichikawa [5], 0.19 µM | – | 125
P12-Ichikawa [5], 0.569 µM | – | 126
P12-Ichikawa [5], 1.71 µM | – | 123
P12-Ichikawa [5], 5.12 µM | – | 111
P12-Ichikawa [5], 15.4 µM | – | 81.8
P12-Ichikawa [5], 46.1 µM | – | 27.1
SEM cells [3], HPLM + 10% dialyzed FBS | 402 | –
SEM cells [3], RPMI 5 mM glucose + 10% FBS | 389 | –
SEM cells [3], RPMI 5 mM glucose + 10% dialyzed FBS | 395 | –

cell viability [%]
Conditions | HPLM + 10% dialyzed FBS | RPMI 5 mM glucose + 10% FBS | RPMI 5 mM glucose + 10% dialyzed FBS
NOMO1 [4], 0.000781 µM | 125 | 124 | 121
NOMO1 [4], 0.00234 µM | 125 | 123 | 129
NOMO1 [4], 0.00702 µM | 120 | 118 | 121
NOMO1 [4], 0.0211 µM | 125 | 134 | 127
NOMO1 [4], 0.0632 µM | 144 | 130 | 140
NOMO1 [4], 0.19 µM | 145 | 141 | 130
NOMO1 [4], 0.569 µM | 140 | 124 | 125
NOMO1 [4], 1.71 µM | 129 | 149 | 125
NOMO1 [4], 5.12 µM | 114 | 122 | 104
NOMO1 [4], 15.4 µM | 100 | 119 | 106
NOMO1 [4], 46.1 µM | 45.7 | 29.5 | 26.8
SEM cells [6], 0.000781 µM | 97.1 | 111 | 108
SEM cells [6], 0.00234 µM | 114 | 109 | 118
SEM cells [6], 0.00702 µM | 116 | 124 | 134
SEM cells [6], 0.0211 µM | 96.8 | 94.8 | 102
SEM cells [6], 0.0632 µM | 127 | 136 | 128
SEM cells [6], 0.19 µM | 115 | 117 | 130
SEM cells [6], 0.569 µM | 109 | 122 | 116
SEM cells [6], 1.71 µM | 96.2 | 98.2 | 112
SEM cells [6], 5.12 µM | 59.6 | 53.4 | 55.3
SEM cells [6], 15.4 µM | 55.1 | 44.2 | 48.6
SEM cells [6], 46.1 µM | 24.8 | 12.7 | 18.1

CC(C)Nc1cc(-c2c[nH]c(C(=O)N[C@H](CO)c3cccc(Cl)c3)c2)c(Cl)cn1
AUC of viability dose-response curve
Conditions | NOMO1 [1] | P12-Ichikawa [2] | SEM cells [3]
HPLM + 10% dialyzed FBS | 393 | 423 | 436
RPMI 5 mM glucose + 10% FBS | 383 | 396 | 422
RPMI 5 mM glucose + 10% dialyzed FBS | 371 | 394 | 400

SEM cells [6], HPLM + 10% dialyzed FBS
Conditions | cell viability [%]
0.000781 µM | 105
0.00234 µM | 118
0.00702 µM | 125
0.0211 µM | 123
0.0632 µM | 141
0.19 µM | 133
0.569 µM | 144
1.71 µM | 120
5.12 µM | 98.7
15.4 µM | 94.1
46.1 µM | 11.3

Cc1ccc(O)c(C(CCN(C(C)C)C(C)C)c2ccccc2)c1.Cl (stereo unspecified)
Conditions | AUC of viability dose-response curve | cell viability [%]
NOMO1 [1], HPLM + 10% dialyzed FBS | 410 | –
NOMO1 [1], RPMI 5 mM glucose + 10% FBS | 430 | –
NOMO1 [1], RPMI 5 mM glucose + 10% dialyzed FBS | 435 | –
P12-Ichikawa [2], HPLM + 10% dialyzed FBS | 465 | –
P12-Ichikawa [2], RPMI 5 mM glucose + 10% FBS | 470 | –
P12-Ichikawa [2], RPMI 5 mM glucose + 10% dialyzed FBS | 475 | –
P12-Ichikawa [5], 0.000781 µM | – | 121
P12-Ichikawa [5], 0.00234 µM | – | 122
P12-Ichikawa [5], 0.00702 µM | – | 131
P12-Ichikawa [5], 0.0211 µM | – | 137
P12-Ichikawa [5], 0.0632 µM | – | 140
P12-Ichikawa [5], 0.19 µM | – | 128
P12-Ichikawa [5], 0.569 µM | – | 129
P12-Ichikawa [5], 1.71 µM | – | 134
P12-Ichikawa [5], 5.12 µM | – | 134
P12-Ichikawa [5], 15.4 µM | – | 136
P12-Ichikawa [5], 46.1 µM | – | 127
SEM cells [3], HPLM + 10% dialyzed FBS | 461 | –
SEM cells [3], RPMI 5 mM glucose + 10% FBS | 477 | –
SEM cells [3], RPMI 5 mM glucose + 10% dialyzed FBS | 463 | –
